From ChEMBL document CHEMBL5465560, “Selectivity Literature for EUbOPEN Chemogenomic Library” (2024)
Blank lines part the entries; values can stand above or below the compound they belong to.

Key:
[1] = test system: Serine/threonine-protein kinase B-raf (Homo sapiens), P15056 [V600E]; conditions: at 10 µM
[2] = biological target: T1, Serine/threonine-protein kinase PLK4 (Homo sapiens) (UniProt O00444); test: Selectivity interaction (KinomeScan (DiscoverX)) EUB0001049a PLK4; conditions: at 1 µM
T1 sequence (whole entry): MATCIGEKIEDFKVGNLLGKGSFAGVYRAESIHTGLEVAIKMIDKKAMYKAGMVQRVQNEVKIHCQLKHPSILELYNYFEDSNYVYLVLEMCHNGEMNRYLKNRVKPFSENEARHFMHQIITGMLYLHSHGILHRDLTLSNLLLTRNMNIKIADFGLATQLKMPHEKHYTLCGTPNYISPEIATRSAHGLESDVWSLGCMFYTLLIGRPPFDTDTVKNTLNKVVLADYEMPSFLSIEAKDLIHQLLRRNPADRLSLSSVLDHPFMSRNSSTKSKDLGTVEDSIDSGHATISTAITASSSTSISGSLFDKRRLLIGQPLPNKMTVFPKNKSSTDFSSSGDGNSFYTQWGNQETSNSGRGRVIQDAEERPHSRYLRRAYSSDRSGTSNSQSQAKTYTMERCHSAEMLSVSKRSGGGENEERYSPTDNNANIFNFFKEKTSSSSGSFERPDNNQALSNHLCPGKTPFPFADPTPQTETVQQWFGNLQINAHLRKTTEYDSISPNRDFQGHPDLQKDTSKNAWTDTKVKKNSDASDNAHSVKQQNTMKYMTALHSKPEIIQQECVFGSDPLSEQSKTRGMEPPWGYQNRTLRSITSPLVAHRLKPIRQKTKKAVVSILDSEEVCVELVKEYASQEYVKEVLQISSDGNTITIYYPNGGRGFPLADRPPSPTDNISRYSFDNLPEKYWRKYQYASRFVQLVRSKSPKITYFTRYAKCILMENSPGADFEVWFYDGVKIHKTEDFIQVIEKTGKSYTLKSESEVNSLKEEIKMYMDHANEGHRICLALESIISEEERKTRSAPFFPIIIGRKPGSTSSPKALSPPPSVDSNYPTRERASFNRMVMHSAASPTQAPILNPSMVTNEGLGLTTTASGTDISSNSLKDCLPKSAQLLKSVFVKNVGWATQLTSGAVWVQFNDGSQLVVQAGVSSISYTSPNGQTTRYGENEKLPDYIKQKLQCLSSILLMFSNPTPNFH

[3] = biological target: Proto-oncogene tyrosine-protein kinase Src (Homo sapiens, UniProt P12931); test: Selectivity interaction (Kinase panel (Invitrogen)) EUB0000639a SRC; conditions: at 200 nM
[4] = biological target: Serine/threonine-protein kinase PLK2 (Homo sapiens, UniProt Q9NYY3); test: Selectivity interaction (KinomeScan (DiscoverX)) EUB0000695a PLK2; conditions: at 100 nM
[5] = biological target: Mitogen-activated protein kinase 1 (Homo sapiens, UniProt P28482); test: Selectivity interaction (KinomeScan (DiscoverX)) EUB0000595a MAPK1; conditions: at 10 µM
[6] = biological target: Ribosomal protein S6 kinase alpha-3 (Homo sapiens, UniProt P51812); test: Selectivity interaction (KinomeScan (DiscoverX)) EUB0000595a RPS6KA3; conditions: at 10 µM
[7] = biological target: Phosphatidylinositol 4-kinase type 2-beta (Homo sapiens) (UniProt Q8TCG2); test: Selectivity interaction (ProQinase) EUB0000171b PI4K2B
[8] = biological target: Serine/threonine-protein kinase MRCK beta (Homo sapiens) (UniProt Q9Y5S2); test: Selectivity interaction (Upstate Kinase Profiler service (Millipore)) EUB0000056c CDC42BPB; conditions: at 1 µM
[9] = biological target: Serine/threonine-protein kinase SBK1 (Homo sapiens) (UniProt Q52WX2); test: Selectivity interaction (KinomeScan (DiscoverX)) EUB0000045b SBK1
[10] = biological target: Cyclin-dependent kinase 14 (Homo sapiens) (UniProt O94921); test: Selectivity interaction (KinomeScan (DiscoverX)) EUB0001619a CDK14; conditions: at 1 µM
[11] = biological target: T2, Serine/threonine-protein kinase ULK1 (Homo sapiens) (UniProt O75385); test: Selectivity interaction (KinomeScan (DiscoverX)) EUB0001619a ULK1; conditions: at 1 µM
T2 sequence (whole entry): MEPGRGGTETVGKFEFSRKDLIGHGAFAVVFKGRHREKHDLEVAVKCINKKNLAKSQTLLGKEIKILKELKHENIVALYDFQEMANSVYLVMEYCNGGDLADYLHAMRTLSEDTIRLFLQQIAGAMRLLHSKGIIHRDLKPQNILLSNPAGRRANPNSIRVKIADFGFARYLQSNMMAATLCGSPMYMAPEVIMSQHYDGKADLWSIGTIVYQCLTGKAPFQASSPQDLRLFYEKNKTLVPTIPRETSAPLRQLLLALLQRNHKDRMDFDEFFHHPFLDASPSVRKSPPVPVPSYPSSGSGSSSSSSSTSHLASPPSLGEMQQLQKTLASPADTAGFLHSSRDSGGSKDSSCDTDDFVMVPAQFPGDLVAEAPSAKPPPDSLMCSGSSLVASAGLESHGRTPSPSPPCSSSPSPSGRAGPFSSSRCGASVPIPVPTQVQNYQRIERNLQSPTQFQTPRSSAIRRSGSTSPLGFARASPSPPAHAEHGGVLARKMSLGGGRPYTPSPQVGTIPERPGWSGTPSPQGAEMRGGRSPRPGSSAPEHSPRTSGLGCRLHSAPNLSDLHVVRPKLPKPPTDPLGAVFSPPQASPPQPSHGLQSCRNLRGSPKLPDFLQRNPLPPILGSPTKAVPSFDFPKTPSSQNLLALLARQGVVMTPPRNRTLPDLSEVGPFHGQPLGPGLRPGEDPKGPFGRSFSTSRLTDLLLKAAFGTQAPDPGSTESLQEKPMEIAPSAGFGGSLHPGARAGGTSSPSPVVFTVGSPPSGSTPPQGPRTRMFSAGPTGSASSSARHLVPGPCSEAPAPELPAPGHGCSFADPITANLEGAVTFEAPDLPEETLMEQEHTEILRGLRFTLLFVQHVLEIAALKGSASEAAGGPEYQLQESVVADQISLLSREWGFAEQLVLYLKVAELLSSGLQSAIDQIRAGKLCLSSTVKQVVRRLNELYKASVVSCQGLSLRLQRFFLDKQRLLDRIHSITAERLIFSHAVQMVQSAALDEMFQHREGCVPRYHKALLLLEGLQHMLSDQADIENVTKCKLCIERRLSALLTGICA

[12] = biological target: Ephrin type-A receptor 2 (Homo sapiens) (UniProt P29317); test: Selectivity interaction (Kinase panel (DSF assay)) EUB0001559a EPHA2
[13] = test system: Epidermal growth factor receptor (Homo sapiens), P00533 [UNDEFINED MUTATION]; test: Selectivity interaction (KinomeScan (DiscoverX)) EUB0000607a EGFR; conditions: at 10 µM
[14] = biological target: Eukaryotic translation initiation factor 2-alpha kinase 1 (Homo sapiens) (UniProt Q9BQI3); test: Selectivity interaction (KinomeScan (DiscoverX)) EUB0000607a EIF2AK1; conditions: at 10 µM

Sequence of Serine/threonine-protein kinase SBK1 (Homo sapiens) (Q52WX2 whole entry): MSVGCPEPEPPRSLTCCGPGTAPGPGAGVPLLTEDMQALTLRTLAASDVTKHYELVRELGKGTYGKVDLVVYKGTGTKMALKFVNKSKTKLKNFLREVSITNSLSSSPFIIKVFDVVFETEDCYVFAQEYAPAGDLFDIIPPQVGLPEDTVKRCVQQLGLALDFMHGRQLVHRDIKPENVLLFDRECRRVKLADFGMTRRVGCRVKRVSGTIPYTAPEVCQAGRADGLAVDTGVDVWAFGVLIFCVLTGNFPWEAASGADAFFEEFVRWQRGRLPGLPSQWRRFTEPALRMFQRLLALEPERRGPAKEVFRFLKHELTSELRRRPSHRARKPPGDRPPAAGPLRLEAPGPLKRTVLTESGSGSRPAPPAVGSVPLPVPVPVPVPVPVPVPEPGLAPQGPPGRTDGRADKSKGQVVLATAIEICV
Sequence of Phosphatidylinositol 4-kinase type 2-beta (Homo sapiens) (Q8TCG2 whole entry): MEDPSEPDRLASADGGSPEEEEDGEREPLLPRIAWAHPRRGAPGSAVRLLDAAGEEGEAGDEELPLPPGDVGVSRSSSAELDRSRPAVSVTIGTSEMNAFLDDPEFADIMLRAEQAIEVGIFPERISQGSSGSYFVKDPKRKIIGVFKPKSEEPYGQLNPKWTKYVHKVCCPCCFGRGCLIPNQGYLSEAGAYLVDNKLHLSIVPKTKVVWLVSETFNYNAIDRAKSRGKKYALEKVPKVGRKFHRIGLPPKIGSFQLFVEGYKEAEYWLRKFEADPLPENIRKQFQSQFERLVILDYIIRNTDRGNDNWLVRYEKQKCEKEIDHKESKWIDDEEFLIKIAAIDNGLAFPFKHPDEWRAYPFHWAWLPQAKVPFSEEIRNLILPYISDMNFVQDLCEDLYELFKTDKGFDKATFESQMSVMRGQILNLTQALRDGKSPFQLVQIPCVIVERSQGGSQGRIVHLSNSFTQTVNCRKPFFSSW
Sequence of Serine/threonine-protein kinase MRCK beta (Homo sapiens) (Q9Y5S2 whole entry): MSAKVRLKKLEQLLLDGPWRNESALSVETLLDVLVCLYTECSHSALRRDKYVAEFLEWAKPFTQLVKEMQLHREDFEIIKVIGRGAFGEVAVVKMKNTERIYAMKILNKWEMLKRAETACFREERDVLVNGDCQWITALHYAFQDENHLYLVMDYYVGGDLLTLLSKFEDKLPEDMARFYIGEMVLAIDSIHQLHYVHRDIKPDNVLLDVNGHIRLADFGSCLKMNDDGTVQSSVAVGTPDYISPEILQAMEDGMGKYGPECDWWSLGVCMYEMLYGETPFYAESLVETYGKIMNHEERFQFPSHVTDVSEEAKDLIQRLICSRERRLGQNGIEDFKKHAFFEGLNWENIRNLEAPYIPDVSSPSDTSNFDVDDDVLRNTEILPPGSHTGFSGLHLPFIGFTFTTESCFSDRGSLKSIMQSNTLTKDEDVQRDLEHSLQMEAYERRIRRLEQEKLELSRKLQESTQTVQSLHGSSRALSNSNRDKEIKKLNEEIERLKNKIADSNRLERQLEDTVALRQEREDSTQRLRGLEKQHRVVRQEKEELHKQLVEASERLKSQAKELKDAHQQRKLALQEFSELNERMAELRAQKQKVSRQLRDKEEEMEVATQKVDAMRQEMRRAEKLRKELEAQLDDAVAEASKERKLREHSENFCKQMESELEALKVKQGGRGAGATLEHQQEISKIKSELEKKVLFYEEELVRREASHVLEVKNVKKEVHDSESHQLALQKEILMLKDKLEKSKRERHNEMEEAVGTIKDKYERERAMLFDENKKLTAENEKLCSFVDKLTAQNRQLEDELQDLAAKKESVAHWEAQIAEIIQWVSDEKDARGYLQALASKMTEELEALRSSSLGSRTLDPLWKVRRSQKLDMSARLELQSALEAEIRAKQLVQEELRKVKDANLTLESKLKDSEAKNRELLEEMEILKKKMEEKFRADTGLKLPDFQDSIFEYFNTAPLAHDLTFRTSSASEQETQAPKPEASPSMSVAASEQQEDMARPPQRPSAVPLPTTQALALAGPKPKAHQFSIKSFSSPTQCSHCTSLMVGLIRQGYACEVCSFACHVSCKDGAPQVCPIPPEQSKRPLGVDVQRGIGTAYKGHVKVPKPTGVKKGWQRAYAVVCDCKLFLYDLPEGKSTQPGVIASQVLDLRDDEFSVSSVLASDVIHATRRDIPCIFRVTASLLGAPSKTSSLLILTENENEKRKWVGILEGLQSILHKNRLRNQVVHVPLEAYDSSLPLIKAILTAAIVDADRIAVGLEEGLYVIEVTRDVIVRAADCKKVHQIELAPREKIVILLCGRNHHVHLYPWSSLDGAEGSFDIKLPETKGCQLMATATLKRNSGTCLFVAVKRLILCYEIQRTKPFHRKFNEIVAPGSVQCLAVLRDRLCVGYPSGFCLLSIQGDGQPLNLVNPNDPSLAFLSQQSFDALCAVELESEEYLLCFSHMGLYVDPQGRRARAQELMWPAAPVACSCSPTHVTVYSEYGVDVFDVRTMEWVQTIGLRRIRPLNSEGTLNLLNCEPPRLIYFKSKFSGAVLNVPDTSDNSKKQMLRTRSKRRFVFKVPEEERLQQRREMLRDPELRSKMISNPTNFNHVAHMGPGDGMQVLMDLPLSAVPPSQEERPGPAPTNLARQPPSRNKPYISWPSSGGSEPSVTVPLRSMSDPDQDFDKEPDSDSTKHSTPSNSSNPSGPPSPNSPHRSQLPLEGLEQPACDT
Sequence of Serine/threonine-protein kinase B-raf (Homo sapiens), P15056 [V600E] (P15056 whole entry V600E): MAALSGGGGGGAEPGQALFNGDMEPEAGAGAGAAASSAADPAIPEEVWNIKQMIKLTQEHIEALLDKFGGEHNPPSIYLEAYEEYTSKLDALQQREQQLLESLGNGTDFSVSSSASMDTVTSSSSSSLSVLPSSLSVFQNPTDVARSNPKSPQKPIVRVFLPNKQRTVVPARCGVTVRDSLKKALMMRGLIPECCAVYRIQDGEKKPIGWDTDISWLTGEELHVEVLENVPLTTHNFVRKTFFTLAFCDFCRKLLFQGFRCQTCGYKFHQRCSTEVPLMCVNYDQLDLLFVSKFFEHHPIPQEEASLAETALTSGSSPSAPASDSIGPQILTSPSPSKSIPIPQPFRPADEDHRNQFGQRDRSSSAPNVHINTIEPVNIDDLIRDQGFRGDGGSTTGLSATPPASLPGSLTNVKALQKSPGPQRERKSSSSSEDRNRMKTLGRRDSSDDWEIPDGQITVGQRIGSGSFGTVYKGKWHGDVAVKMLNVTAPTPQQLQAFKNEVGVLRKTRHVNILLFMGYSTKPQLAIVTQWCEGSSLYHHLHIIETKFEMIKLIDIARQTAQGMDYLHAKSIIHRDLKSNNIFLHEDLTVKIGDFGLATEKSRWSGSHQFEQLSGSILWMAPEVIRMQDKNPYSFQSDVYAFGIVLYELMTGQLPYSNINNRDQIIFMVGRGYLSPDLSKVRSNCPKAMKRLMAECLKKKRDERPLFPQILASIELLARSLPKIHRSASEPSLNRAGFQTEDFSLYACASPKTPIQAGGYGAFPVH
Sequence of Mitogen-activated protein kinase 1 (P28482 whole entry): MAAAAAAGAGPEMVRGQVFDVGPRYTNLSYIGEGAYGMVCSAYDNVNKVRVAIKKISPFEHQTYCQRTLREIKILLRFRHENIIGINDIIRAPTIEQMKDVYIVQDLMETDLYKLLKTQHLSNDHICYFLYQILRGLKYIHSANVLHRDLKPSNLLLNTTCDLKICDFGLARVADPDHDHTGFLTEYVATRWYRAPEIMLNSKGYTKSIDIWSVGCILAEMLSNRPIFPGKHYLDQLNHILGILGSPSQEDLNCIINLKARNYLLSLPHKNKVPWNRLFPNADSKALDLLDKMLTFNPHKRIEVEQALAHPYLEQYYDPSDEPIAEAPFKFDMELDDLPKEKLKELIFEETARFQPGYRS
Sequence of Cyclin-dependent kinase 14 (Homo sapiens) (O94921 whole entry): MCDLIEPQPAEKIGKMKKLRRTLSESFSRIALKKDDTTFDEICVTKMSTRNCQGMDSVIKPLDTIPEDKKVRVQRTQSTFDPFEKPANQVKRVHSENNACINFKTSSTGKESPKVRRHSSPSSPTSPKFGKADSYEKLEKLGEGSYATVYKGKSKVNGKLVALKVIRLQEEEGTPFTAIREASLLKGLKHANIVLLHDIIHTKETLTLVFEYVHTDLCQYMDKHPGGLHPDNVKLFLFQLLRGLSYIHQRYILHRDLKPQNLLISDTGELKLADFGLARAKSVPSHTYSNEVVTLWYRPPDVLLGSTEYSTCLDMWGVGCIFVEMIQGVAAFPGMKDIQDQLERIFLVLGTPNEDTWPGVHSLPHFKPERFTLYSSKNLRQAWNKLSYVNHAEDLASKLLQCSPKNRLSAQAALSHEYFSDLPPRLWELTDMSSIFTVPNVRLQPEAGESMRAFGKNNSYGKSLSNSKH
Sequence of Serine/threonine-protein kinase PLK2 (Q9NYY3 whole entry, looked up): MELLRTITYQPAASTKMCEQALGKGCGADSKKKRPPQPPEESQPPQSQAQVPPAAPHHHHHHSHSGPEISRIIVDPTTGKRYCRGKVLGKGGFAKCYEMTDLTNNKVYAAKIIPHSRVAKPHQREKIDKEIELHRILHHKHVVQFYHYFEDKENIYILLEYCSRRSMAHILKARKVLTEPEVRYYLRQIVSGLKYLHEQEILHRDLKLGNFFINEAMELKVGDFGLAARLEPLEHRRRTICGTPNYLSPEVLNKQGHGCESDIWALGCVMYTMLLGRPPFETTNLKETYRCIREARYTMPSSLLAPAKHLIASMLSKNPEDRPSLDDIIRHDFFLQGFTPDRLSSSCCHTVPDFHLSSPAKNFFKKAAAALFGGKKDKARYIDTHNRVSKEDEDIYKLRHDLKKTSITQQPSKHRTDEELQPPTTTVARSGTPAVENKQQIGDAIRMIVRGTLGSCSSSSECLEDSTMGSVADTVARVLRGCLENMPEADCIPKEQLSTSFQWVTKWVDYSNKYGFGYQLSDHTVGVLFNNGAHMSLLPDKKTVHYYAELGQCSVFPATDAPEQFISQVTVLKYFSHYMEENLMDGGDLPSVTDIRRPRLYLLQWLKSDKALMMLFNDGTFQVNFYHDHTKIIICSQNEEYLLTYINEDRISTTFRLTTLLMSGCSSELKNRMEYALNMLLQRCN

SMILES: Cc1cc([C@@H](C)Nc2ccccc2C(=O)O)c2nc(N3CCOCC3)cc(=O)n2c1 [AZD-6482]
% of control [1]: 92%

SMILES: COc1cc(Nc2nc(C)cc(-c3cnn4nc(OC)ccc34)n2)cc(C(F)(F)F)c1
% of control [2]: 49%

% of inhibition [3]: 14.4%
SMILES: CC[C@@H]1[C@H](F)C(=O)N[C@@H]1COc1nccc2cc(C(N)=O)c(OC)cc12 [ZIMLOVISERTIB]

SMILES: Cc1cc(F)c(C(=O)Nc2cccc(-c3nncn3C(C)C)n2)cc1-n1cnc(C2CC2)c1
% of control [4]: 88%

SMILES: COCC(=O)NC/C=C/c1ccc2ncnc(Nc3ccc(Oc4ccc(C)nc4)c(C)c3)c2c1 [CP-724714]
% of control [5]: 100%
% of control [6]: 92%

% of control ([7]; at 1 µM): 128%
% of control ([7]; at 5 µM): 120%
SMILES: C=CC(=O)Nc1cccc(C(=O)Nc2ccc(Nc3cc(-c4[nH]c(SC)nc4C)ccn3)cc2)c1

% of inhibition [8]: 4%
SMILES: Cc1ccc(-c2ccc3c(ccc4sc5c(c43)NC[C@@H](C)NC5=O)n2)cn1

SMILES: C=CC(=O)Nc1cc(-n2c(=O)ccc3cnc4ccc(-c5ccc(NS(C)(=O)=O)cc5)cc4c32)ccc1C
% of control ([9]; at 1 µM): 4.6%
% of control ([9]; at 10 µM): 100%

SMILES: N#Cc1cccc(-c2c[nH]c3ncnc(N4CCOCC4)c23)c1
% of control [10]: 100%
% of control [11]: 65%

dTM [12]: -0.4 K
SMILES: CN(C(=O)c1cnn2cccnc12)c1cc2c(cc1N1CCOCC1)C(=O)N(C[C@@H](F)C(C)(C)O)C2

SMILES: CNC(=O)Nc1ccc(-c2nc(N3CC4CCC(C3)O4)c3cnn(C4CCC5(CC4)OCCO5)c3n2)cc1
% of control [13]: 62%
% of control [14]: 100%
